From ChEMBL document CHEMBL1140553, “Efficient synthesis and in vitro cytostatic activity of 4-substituted triazolyl-nucleosides” (Bioorg Med Chem Lett, 2007)

Assays:
Assay type in all cases: functional, cell-based
L1210 = assay: Cytostatic activity against mouse L1210 cells
MOLT-4 = assay: Cytostatic activity against human Molt4/C8 cells
CCRF-CEM = assay: Cytostatic activity against human CEM cells

IC50 (L1210) [µM]	IC50 (MOLT-4) [µM]	IC50 (CCRF-CEM) [µM]	Structure (SMILES)
> 200	> 200	> 200	CC(O)c1cn([C@@H]2O[C@H](CO)[C@@H](O)[C@H]2O)nn1 (some centres undefined)
56	50	44	CCCCCCCCc1cn([C@@H]2O[C@H](CO)[C@@H](O)[C@H]2O)nn1
209	171	217	OC[C@H]1O[C@@H](n2cc(-c3ccc(F)cc3)nn2)[C@H](O)[C@@H]1O
236	170	245	OC[C@H]1O[C@@H](n2cc(-c3ccccn3)nn2)[C@H](O)[C@@H]1O
152	36	73	COc1ccc(-c2cn([C@@H]3O[C@H](CO)[C@@H](O)[C@H]3O)nn2)cc1
> 200	> 200	> 200	OCc1cn([C@@H]2O[C@H](CO)[C@@H](O)[C@H]2O)nn1
> 200	> 200	> 200	CCCCCCc1cn([C@@H]2O[C@H](CO)[C@@H](O)[C@H]2O)nn1
182	126	139	OC[C@H]1O[C@@H](n2cc(-c3ccsc3)nn2)[C@H](O)[C@@H]1O
